Laboratory results taken from patent publication US9877956B2, “Antiviral compounds and methods of use thereof” (Trana Discovery, Inc., priority 2014, dated 2018).
Several values for one entry are separate records, joined by “and”; a condition that tells them apart may be missing. Equal values may be shown once.

Columns and labels:
Assay type in all cases: cell-based
HIV-1/Ba-L = assay: Inhibition of HIV-1 Ba-L replication in PBMC (RT values); details: for % VC: RT relative to virus control; for RT Values (cpm), SAMPLE: individual samples
Protocol: (§1) These compounds were further screened for activity in HIV-1-infected peripheral blood mononuclear cells (PBMC). The data (experiments were repeated, so duplicates are shown) is summarized in the tables below, and also in FIGS. 4A-B and 5A-B.
The HIV strain was HIV-1/Ba-L. The titer was 0.1 μL/well.

[1] = Toxicity in PBMC (Cell Titer 96); details: human, peripheral blood mononuclear cells (PBMC); PBMC, Cell Titer 96
Source text: as §1

PBMC = assay: Toxicity in PBMC (Cell Titer 96); details: for % CC: O.D. relative to cell control; for TOXICITY VALUES (Cell Titer 96 - O.D. @ 490/650 nm), SAMPLE: individual samples
Source text: as §1

[2] = Human immunodeficiency virus 1, BAL, PBMC, HIV-1 Ba-L in PBMC

CC1(C)OC(=O)C(=Cc2ccc(I)o2)C(=O)O1 [HIT #156]
% VC (HIV-1/Ba-L; 0.01 μM): 112.3% and 106.4% | RT Values (cpm), SAMPLE (HIV-1/Ba-L; 0.01 μM): 10480 cpm and 8884 cpm and 11894 cpm and 25643 cpm and 28270 cpm and 33067 cpm | % VC (HIV-1/Ba-L; 0.03 μM): 84.0% and 99.4% | RT Values (cpm), SAMPLE (HIV-1/Ba-L; 0.03 μM): 6505 cpm and 8625 cpm and 8243 cpm and 25769 cpm and 26494 cpm and 29027 cpm | % VC (HIV-1/Ba-L; 0.10 μM): 68.9% and 122.1% | RT Values (cpm), SAMPLE (HIV-1/Ba-L; 0.10 μM): 8064 cpm and 6238 cpm and 4871 cpm and 38847 cpm and 24637 cpm and 36331 cpm | % VC (HIV-1/Ba-L; 0.32 μM): 81.3% and 86.3% | RT Values (cpm), SAMPLE (HIV-1/Ba-L; 0.32 μM): 8253 cpm and 7009 cpm and 7376 cpm and 18012 cpm and 26707 cpm and 25800 cpm | % VC (HIV-1/Ba-L; 1.00 μM): 64.5% and 85.3% | RT Values (cpm), SAMPLE (HIV-1/Ba-L; 1.00 μM): 9732 cpm and 5647 cpm and 2583 cpm and 21965 cpm and 22751 cpm and 25042 cpm | % VC (HIV-1/Ba-L; 3.16 μM): 27.9% and 43.2% | RT Values (cpm), SAMPLE (HIV-1/Ba-L; 3.16 μM): 6132 cpm and 1058 cpm and 586 cpm and 6829 cpm and 9899 cpm and 18609 cpm | % VC (HIV-1/Ba-L; 10.0 μM): 6.4% and 12.6% | RT Values (cpm), SAMPLE (HIV-1/Ba-L; 10.0 μM): 635 cpm and 579 cpm and 575 cpm and 9437 cpm and 247 cpm and 585 cpm | % VC (HIV-1/Ba-L; 31.6 μM): 1.6% and 2.3% | RT Values (cpm), SAMPLE (HIV-1/Ba-L; 31.6 μM): 54 cpm and 94 cpm and 290 cpm and 120 cpm and 1345 cpm and 378 cpm | % VC (HIV-1/Ba-L; 100 μM): 0.1% and 0.0% | RT Values (cpm), SAMPLE (HIV-1/Ba-L; 100 μM): 18 cpm and 2 cpm and 0 cpm | IC50 (HIV-1/Ba-L; HIV-1 Ba-L in PBMC): 2.63 µM | IC90 (HIV-1/Ba-L; HIV-1 Ba-L in PBMC): 13.3 µM | IC 95% (HIV-1/Ba-L; HIV-1 Ba-L in PBMC): 14.0 µM and 23.3 µM | IC50 (HIV-1/Ba-L; [2]): 1.58 µM | IC90 (HIV-1/Ba-L; [2]): 8.26 µM | ANTIVIRAL INDEX (AI) 50% (HIV-1/Ba-L; TC/IC at 50%): >63.3 and >38.1 | ANTIVIRAL INDEX (AI) 90% (HIV-1/Ba-L; TC/IC at 90%): >12.1 and >7.51 | ANTIVIRAL INDEX (AI) 95% (HIV-1/Ba-L; TC/IC at 95%): >7.14 and >4.30 | CC50 [1]: > 100 µM | % CC (PBMC; 0.01 μM): 110.7% and 108.3% | TOXICITY VALUES (Cell Titer 96 - O.D. @ 490/650 nm), SAMPLE (PBMC; 0.01 μM): 2.344 O.D. and 1.718 O.D. and 1.852 O.D. and 0.687 O.D. and 1.030 O.D. and 0.777 O.D. | % CC (PBMC; 0.03 μM): 111.8% and 118.7% | TOXICITY VALUES (Cell Titer 96 - O.D. @ 490/650 nm), SAMPLE (PBMC; 0.03 μM): 2.336 O.D. and 1.807 O.D. and 1.831 O.D. and 0.821 O.D. and 1.115 O.D. and 0.798 O.D. | TOXICITY VALUES (Cell Titer 96 - O.D. @ 490/650 nm), MEAN (PBMC; 0.10 μM): 1.952 O.D. and 0.991 O.D. | % CC (PBMC; 0.10 μM): 109.6% and 129.1% | TOXICITY VALUES (Cell Titer 96 - O.D. @ 490/650 nm), SAMPLE (PBMC; 0.10 μM): 2.142 O.D. and 1.855 O.D. and 1.858 O.D. and 1.098 O.D. and 1.053 O.D. and 0.822 O.D. | TOXICITY VALUES (Cell Titer 96 - O.D. @ 490/650 nm), MEAN (PBMC; 0.32 μM): 1.937 O.D. and 1.031 O.D. | % CC (PBMC; 0.32 μM): 108.8% and 134.3% | TOXICITY VALUES (Cell Titer 96 - O.D. @ 490/650 nm), SAMPLE (PBMC; 0.32 μM): 2.234 O.D. and 1.808 O.D. and 1.768 O.D. and 1.094 O.D. and 1.234 O.D. and 0.765 O.D. | TOXICITY VALUES (Cell Titer 96 - O.D. @ 490/650 nm), MEAN (PBMC; 1.00 μM): 1.882 O.D. and 1.010 O.D. | % CC (PBMC; 1.00 μM): 105.7% and 131.5% | TOXICITY VALUES (Cell Titer 96 - O.D. @ 490/650 nm), SAMPLE (PBMC; 1.00 μM): 2.065 O.D. and 1.819 O.D. and 1.762 O.D. and 1.173 O.D. and 1.067 O.D. and 0.789 O.D. | TOXICITY VALUES (Cell Titer 96 - O.D. @ 490/650 nm), MEAN (PBMC; 3.16 μM): 1.914 O.D. and 1.060 O.D. | % CC (PBMC; 3.16 μM): 107.5% and 138.1% | TOXICITY VALUES (Cell Titer 96 - O.D. @ 490/650 nm), SAMPLE (PBMC; 3.16 μM): 2.179 O.D. and 1.770 O.D. and 1.792 O.D. and 1.161 O.D. and 1.175 O.D. and 0.845 O.D. | TOXICITY VALUES (Cell Titer 96 - O.D. @ 490/650 nm), MEAN (PBMC; 10.0 μM): 1.924 O.D. and 0.976 O.D. | % CC (PBMC; 10.0 μM): 108.1% and 127.1% | TOXICITY VALUES (Cell Titer 96 - O.D. @ 490/650 nm), SAMPLE (PBMC; 10.0 μM): 2.172 O.D. and 1.791 O.D. and 1.810 O.D. and 1.001 O.D. and 0.993 O.D. and 0.934 O.D. | TOXICITY VALUES (Cell Titer 96 - O.D. @ 490/650 nm), MEAN (PBMC; 31.6 μM): 1.891 O.D. and 0.979 O.D. | % CC (PBMC; 31.6 μM): 106.2% and 127.5% | TOXICITY VALUES (Cell Titer 96 - O.D. @ 490/650 nm), SAMPLE (PBMC; 31.6 μM): 2.078 O.D. and 1.741 O.D. and 1.855 O.D. and 0.997 O.D. and 1.014 O.D. and 0.926 O.D.
